Blank lines part the entries; values can stand above or below the molecule they belong to.
How the values were obtained:
[1] = target: T1, Recombinant mouse catalase protein (CAT) (Mus musculus, UniProt P24270); assay: surface plasmon resonance (Biacore T200), steady-state affinity; assay type: binding
T1 construct: commercial recombinant protein, immobilised on CM5 chip
T1 sequence (P24270 2-527): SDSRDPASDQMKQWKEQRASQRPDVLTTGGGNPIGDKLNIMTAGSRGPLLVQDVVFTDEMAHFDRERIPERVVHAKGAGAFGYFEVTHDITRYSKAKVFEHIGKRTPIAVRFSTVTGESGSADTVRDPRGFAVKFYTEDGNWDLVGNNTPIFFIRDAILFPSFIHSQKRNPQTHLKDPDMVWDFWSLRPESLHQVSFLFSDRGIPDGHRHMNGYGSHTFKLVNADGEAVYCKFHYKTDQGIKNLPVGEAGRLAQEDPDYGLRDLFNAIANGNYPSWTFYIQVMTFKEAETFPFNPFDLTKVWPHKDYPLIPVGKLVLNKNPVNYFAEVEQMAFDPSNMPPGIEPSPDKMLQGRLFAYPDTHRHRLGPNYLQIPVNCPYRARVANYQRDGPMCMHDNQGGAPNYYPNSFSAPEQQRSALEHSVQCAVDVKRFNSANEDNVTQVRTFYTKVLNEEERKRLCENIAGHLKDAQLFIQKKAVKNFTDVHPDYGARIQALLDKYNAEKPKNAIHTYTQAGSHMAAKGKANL

[2] = target: T2, recombinant human CAT protein (Homo sapiens, UniProt P04040); assay: catalase activity kit; assay type: biochemical; conditions: 20 min preincubation with 1 μM 13-HODE, room temperature not stated
T2 construct: commercial recombinant protein
T2 sequence (P04040 2-527): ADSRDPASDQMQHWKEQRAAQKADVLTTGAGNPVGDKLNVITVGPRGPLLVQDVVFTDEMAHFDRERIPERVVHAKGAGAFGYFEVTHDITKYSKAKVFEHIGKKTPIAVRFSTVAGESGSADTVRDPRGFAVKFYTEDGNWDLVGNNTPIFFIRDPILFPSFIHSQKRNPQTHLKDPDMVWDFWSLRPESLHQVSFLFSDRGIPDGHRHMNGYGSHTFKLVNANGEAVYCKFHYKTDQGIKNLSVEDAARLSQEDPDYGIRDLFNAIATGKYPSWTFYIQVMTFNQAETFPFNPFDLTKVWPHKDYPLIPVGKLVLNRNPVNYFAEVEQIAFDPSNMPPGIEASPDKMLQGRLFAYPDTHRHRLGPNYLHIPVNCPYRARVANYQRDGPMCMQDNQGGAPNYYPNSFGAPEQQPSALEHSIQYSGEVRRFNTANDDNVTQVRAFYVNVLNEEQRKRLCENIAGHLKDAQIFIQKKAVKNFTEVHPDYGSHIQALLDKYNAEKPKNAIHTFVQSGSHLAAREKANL

[3] = target: the molecule itself; assay: cross-linking; primary mouse hepatocytes treated with or without 1 uM 13-HODE for 6 h, then 100 uM DSS crosslinker for 1 h before protein extraction; western blot for CAT tetramer and monomer; monomer to tetramer

Kd [1]: 2420 nM
Molecule: CCCCC[C@H](O)/C=C/C=C\CCCCCCCC(=O)O [13(S)-HODE]

Molecule: CCCCCC(O)/C=C/C=C\CCCCCCCC(=O)O (stereo not drawn) [13-HODE]
CAT activity at 1 μM [2]: incubated recombinant CAT protein with 13-HODE and found that it inhibited CAT activity in vitro

B1: Catalase (CAT) (enzyme, UniProt P24270 1-527, looked up)
chain: MSDSRDPASDQMKQWKEQRASQRPDVLTTGGGNPIGDKLNIMTAGSRGPLLVQDVVFTDEMAHFDRERIPERVVHAKGAGAFGYFEVTHDITRYSKAKVFEHIGKRTPIAVRFSTVTGESGSADTVRDPRGFAVKFYTEDGNWDLVGNNTPIFFIRDAILFPSFIHSQKRNPQTHLKDPDMVWDFWSLRPESLHQVSFLFSDRGIPDGHRHMNGYGSHTFKLVNADGEAVYCKFHYKTDQGIKNLPVGEAGRLAQEDPDYGLRDLFNAIANGNYPSWTFYIQVMTFKEAETFPFNPFDLTKVWPHKDYPLIPVGKLVLNKNPVNYFAEVEQMAFDPSNMPPGIEPSPDKMLQGRLFAYPDTHRHRLGPNYLQIPVNCPYRARVANYQRDGPMCMHDNQGGAPNYYPNSFSAPEQQRSALEHSVQCAVDVKRFNSANEDNVTQVRTFYTKVLNEEERKRLCENIAGHLKDAQLFIQKKAVKNFTDVHPDYGARIQALLDKYNAEKPKNAIHTYTQAGSHMAAKGKANL
notes: Catalase, mouse, endogenous in primary hepatocytes of C57BL/6 mice; Detected by western blot as monomer and tetramer after DSS cross-linking; source: endogenous, primary mouse hepatocytes (cross-linked in cells before protein extraction)
stoichiometry N [3]: 4
